{"source": "patent US11078202B2", "about": "“β-lactamase inhibitor and use thereof” (priority 2018, dated 2021)", "type_in_all_cases": "cell-based", "key": {"[1]": {"test_system": "Klebsiella pneumoniae XNWB 0001", "assay": "MIC assay of test compounds combined with imipenem (4 μg/mL)", "conditions": "imipenem 4 μg/mL fixed", "in_short": "(§1)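 Colonies from 20-24 h TSA plates (35±2 °C) → saline, OD600 0.1-0.15 → 300-fold dilution in 1.1×CAMHB → added to compound plus fixed antibiotic wells, growth and sterility controls included → 16-20 h at 35±2 °C → MIC by CLSI criteria.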"}, "[2]": {"test_system": "Klebsiella pneumoniae XNWB 0005", "assay": "MIC assay of test compounds combined with imipenem (4 μg/mL)", "conditions": "imipenem 4 μg/mL fixed", "in_short": "as §1"}, "[3]": {"test_system": "Klebsiella pneumoniae XNWB 0003", "assay": "MIC assay of test compounds combined with imipenem (4 μg/mL)", "conditions": "imipenem 4 μg/mL fixed", "in_short": "as §1"}, "[4]": {"test_system": "Klebsiella pneumoniae XNWB 0006", "assay": "MIC assay of test compounds combined with imipenem (4 μg/mL)", "conditions": "imipenem 4 μg/mL fixed", "in_short": "as §1"}, "[5]": {"test_system": "Klebsiella pneumoniae XNWB 0004", "assay": "MIC assay of test compounds combined with imipenem (4 μg/mL)", "conditions": "imipenem 4 μg/mL fixed", "in_short": "as §1"}, "[6]": {"test_system": "Acinetobacter baumannii XNWB 0007", "assay": "MIC assay of test compounds combined with imipenem (4 μg/mL)", "conditions": "imipenem 4 μg/mL fixed", "in_short": "as §1"}, "[7]": {"test_system": "Pseudomonas aeruginosa XNWB 0008", "assay": "MIC assay of test compounds combined with imipenem (4 μg/mL)", "conditions": "imipenem 4 μg/mL fixed", "in_short": "as §1"}, "[8]": {"test_system": "Klebsiella pneumoniae XNWB 0002", "assay": "MIC assay of test compounds combined with imipenem (4 μg/mL)", "conditions": "imipenem 4 μg/mL fixed", "in_short": "as §1"}, "[9]": {"test_system": "Klebsiella pneumoniae XNWB 0001", "assay": "MIC assay of test compounds combined with ceftazidime (8 μg/mL)", "conditions": "ceftazidime 8 μg/mL fixed", "in_short": "as §1"}, "[10]": {"test_system": "Klebsiella pneumoniae XNWB 0005", "assay": "MIC assay of test compounds combined with ceftazidime (8 μg/mL)", "conditions": "ceftazidime 8 μg/mL fixed", "in_short": "as §1"}, "[11]": {"test_system": "Klebsiella pneumoniae XNWB 0003", "assay": "MIC assay of test compounds combined with ceftazidime (8 μg/mL)", "conditions": "ceftazidime 8 μg/mL fixed", "in_short": "as §1"}, "[12]": {"test_system": "Klebsiella pneumoniae XNWB 0006", "assay": "MIC assay of test compounds combined with ceftazidime (8 μg/mL)", "conditions": "ceftazidime 8 μg/mL fixed", "in_short": "as §1"}, "[13]": {"test_system": "Klebsiella pneumoniae XNWB 0004", "assay": "MIC assay of test compounds combined with ceftazidime (8 μg/mL)", "conditions": "ceftazidime 8 μg/mL fixed", "in_short": "as §1"}, "[14]": {"test_system": "Acinetobacter baumannii XNWB 0007", "assay": "MIC assay of test compounds combined with ceftazidime (8 μg/mL)", "conditions": "ceftazidime 8 μg/mL fixed", "in_short": "as §1"}, "[15]": {"test_system": "Pseudomonas aeruginosa XNWB 0008", "assay": "MIC assay of test compounds combined with ceftazidime (8 μg/mL)", "conditions": "ceftazidime 8 μg/mL fixed", "in_short": "as §1"}, "[16]": {"test_system": "Klebsiella pneumoniae XNWB 0002", "assay": "MIC assay of test compounds combined with ceftazidime (8 μg/mL)", "conditions": "ceftazidime 8 μg/mL fixed", "in_short": "as §1"}}, "note": "Structures can show the parent of a compound that is named as a salt."}
{"smiles": "N=C(N)NCCc1cc([C@@H]2CC3(CC3)[C@@H]3CN2C(=O)N3OS(=O)(=O)O)no1", "note": "[Example 36, (1R,4S)-4-(5-(2-guanidinoethyl)isoxazol-3-yl)-6-oxo-5,7-diazaspiro[bicyclo[3.2.1]octane-2,1′-cyclopropan]-7-yl sulfate]", "values": [{"measurement": "The minimum concentration of test compounds combined with imipenem (4 μg/mL) for bacteriostasis", "setting": "[1]", "value": "A (A: <8 μg/mL)"}, {"measurement": "The minimum concentration of test compounds combined with imipenem (4 μg/mL) for bacteriostasis", "setting": "[2]", "value": "A (A: <8 μg/mL)"}, {"measurement": "The minimum concentration of test compounds combined with imipenem (4 μg/mL) for bacteriostasis", "setting": "[3]", "value": "A (A: <8 μg/mL)"}, {"measurement": "The minimum concentration of test compounds combined with imipenem (4 μg/mL) for bacteriostasis", "setting": "[4]", "value": "A (A: <8 μg/mL)"}, {"measurement": "The minimum concentration of test compounds combined with imipenem (4 μg/mL) for bacteriostasis", "setting": "[5]", "value": "A (A: <8 μg/mL)"}, {"measurement": "The minimum concentration of test compounds combined with imipenem (4 μg/mL) for bacteriostasis", "setting": "[6]", "value": "C (C: 16-128 μg/mL)"}, {"measurement": "The minimum concentration of test compounds combined with imipenem (4 μg/mL) for bacteriostasis", "setting": "[7]", "value": "A (A: <8 μg/mL)"}, {"measurement": "The minimum concentration of test compounds combined with imipenem (4 μg/mL) for bacteriostasis", "setting": "[8]", "value": "A (A: <8 μg/mL)"}, {"measurement": "The minimum concentration of test compounds combined with ceftazidime (8 μg/mL) for bacteriostasis", "setting": "[9]", "value": "A (A: <8 μg/mL)"}, {"measurement": "The minimum concentration of test compounds combined with ceftazidime (8 μg/mL) for bacteriostasis", "setting": "[10]", "value": "A (A: <8 μg/mL)"}, {"measurement": "The minimum concentration of test compounds combined with ceftazidime (8 μg/mL) for bacteriostasis", "setting": "[11]", "value": "A (A: <8 μg/mL)"}, {"measurement": "The minimum concentration of test compounds combined with ceftazidime (8 μg/mL) for bacteriostasis", "setting": "[12]", "value": "A (A: <8 μg/mL)"}, {"measurement": "The minimum concentration of test compounds combined with ceftazidime (8 μg/mL) for bacteriostasis", "setting": "[13]", "value": "B (B: 8-16 μg/mL)"}, {"measurement": "The minimum concentration of test compounds combined with ceftazidime (8 μg/mL) for bacteriostasis", "setting": "[14]", "value": "C (C: 16-128 μg/mL)"}, {"measurement": "The minimum concentration of test compounds combined with ceftazidime (8 μg/mL) for bacteriostasis", "setting": "[15]", "value": "B (B: 8-16 μg/mL)"}, {"measurement": "The minimum concentration of test compounds combined with ceftazidime (8 μg/mL) for bacteriostasis", "setting": "[16]", "value": "A (A: <8 μg/mL)"}]}
{"smiles": "O=C1N2C[C@H](N1OS(=O)(=O)O)C1(CC1)C[C@H]2c1cc(CNC2CNC2)on1", "note": "[Example 48, (1R,4S)-4-(5-((azetidin-3-ylamino)methyl)isoxazol-3-yl)-6-oxo-5,7-diazaspiro[bicycle [3.2.1]octane-2,1′-cyclopropan]-7-yl sulfate]", "values": [{"measurement": "The minimum concentration of test compounds combined with imipenem (4 μg/mL) for bacteriostasis", "setting": "[1]", "value": "A (A: <8 μg/mL)"}, {"measurement": "The minimum concentration of test compounds combined with imipenem (4 μg/mL) for bacteriostasis", "setting": "[2]", "value": "A (A: <8 μg/mL)"}, {"measurement": "The minimum concentration of test compounds combined with imipenem (4 μg/mL) for bacteriostasis", "setting": "[3]", "value": "A (A: <8 μg/mL)"}, {"measurement": "The minimum concentration of test compounds combined with imipenem (4 μg/mL) for bacteriostasis", "setting": "[4]", "value": "A (A: <8 μg/mL)"}, {"measurement": "The minimum concentration of test compounds combined with imipenem (4 μg/mL) for bacteriostasis", "setting": "[5]", "value": "A (A: <8 μg/mL)"}, {"measurement": "The minimum concentration of test compounds combined with imipenem (4 μg/mL) for bacteriostasis", "setting": "[6]", "value": "C (C: 16-128 μg/mL)"}, {"measurement": "The minimum concentration of test compounds combined with imipenem (4 μg/mL) for bacteriostasis", "setting": "[7]", "value": "A (A: <8 μg/mL)"}, {"measurement": "The minimum concentration of test compounds combined with imipenem (4 μg/mL) for bacteriostasis", "setting": "[8]", "value": "A (A: <8 μg/mL)"}, {"measurement": "The minimum concentration of test compounds combined with ceftazidime (8 μg/mL) for bacteriostasis", "setting": "[9]", "value": "A (A: <8 μg/mL)"}, {"measurement": "The minimum concentration of test compounds combined with ceftazidime (8 μg/mL) for bacteriostasis", "setting": "[10]", "value": "A (A: <8 μg/mL)"}, {"measurement": "The minimum concentration of test compounds combined with ceftazidime (8 μg/mL) for bacteriostasis", "setting": "[11]", "value": "A (A: <8 μg/mL)"}, {"measurement": "The minimum concentration of test compounds combined with ceftazidime (8 μg/mL) for bacteriostasis", "setting": "[12]", "value": "A (A: <8 μg/mL)"}, {"measurement": "The minimum concentration of test compounds combined with ceftazidime (8 μg/mL) for bacteriostasis", "setting": "[13]", "value": "B (B: 8-16 μg/mL)"}, {"measurement": "The minimum concentration of test compounds combined with ceftazidime (8 μg/mL) for bacteriostasis", "setting": "[14]", "value": "C (C: 16-128 μg/mL)"}, {"measurement": "The minimum concentration of test compounds combined with ceftazidime (8 μg/mL) for bacteriostasis", "setting": "[15]", "value": "B (B: 8-16 μg/mL)"}, {"measurement": "The minimum concentration of test compounds combined with ceftazidime (8 μg/mL) for bacteriostasis", "setting": "[16]", "value": "A (A: <8 μg/mL)"}]}
